Measured values reported in article PMC11574045, “A cofactor-induced repressive type of transcription factor condensation can be induced by synthetic peptides to suppress tumorigenesis” (The EMBO Journal, 2024).

System: HEK293FT cells transfected with TF library
Test: Screening of TF condensates based on fluorescent puncta
Type: cell-based
Settings: Figure 1B numerical data; TF library screen, one value per transcriptional factor
Experimental: TF plasmids were automatically added to black-walled 384-well plates at 80 ng per well to reach a final concentration of 1.6 μg/ml. Polyethylenimine (PEI, Sigma) was then added to the plasmid-loaded plates at 240 ng per well (4.8 μg/ml). Subsequently, HEK293FT cells were seeded into the plate at 2000 cells per well. After 60 h, cells were cultured in medium with or without glucose for 12 h, and then fixed with 4% paraformaldehyde (PFA) at room temperature for 30 min. After three washes with PBS, fixed cells were permeabilized with 0.05% Triton X-100 for 15 min. Thereafter, cells were blocked with 5% BSA for 1 h, and then incubated overnight with anti-Flag (Sigma F3165, 1:200) and anti-GAL4 (Abbkine ABP57232, 1:200) primary antibodies at 4 °C. The cells were then gently washed with PBS, followed by being incubated with Alexa Fluor Plus 488 goat anti-mouse IgG secondary antibody (Thermo A32723, 1:400) or Alexa Fluor Plus 488 goat anti-rabbit IgG secondary antibody (Thermo A32731, 1:400) for 1 h. The plates were kept at 4 °C in the dark before being analyzed using an Opera System (Perkin Elmer). Fifty random fields per well were scanned and analyzed using the Columbus Plus Image Data Storage and Analysis System (Perkin Elmer).

Substance | Z score of condensed fraction
ANKRD1 | 1.047
AP-2A | 0.4428
ARNT2 | -0.9281
ARX | -0.4034
ATF4/CREB2 | 2.625
BACH2 | 2.257
BHLHE22 | 1.286
BIRC3 | -0.652
BMAL1 | -0.6251
BTEB1 | -0.01224
CFOS | 0.6801
CHD6 | -1.082
COPEB | -0.3064
COPS5 | -0.1538
CREB1 | -0.9562
CSDA | -0.8745
CTBP2 | 1.5
DLX3 | -0.9246
DLX5 | -0.5192
DLX6 | -0.9336
DMBX1 | -0.1986
DMRTB1 | 1.668
DOUBLESEX | -0.4806
DYRK1B | -0.5775
EED | -1.11
EGR2 | -0.8859

Substance | Z score of condensed fraction
EGR3 | 0.2174
EHF | -0.3879
ELF1 | 3.027
ELK3 | 0.04681
ELK4 | 0.361
EPAS1 | -0.6882
ETS2 | -0.1278
ETV6 | -0.2068
FEV | -0.8157
FIGLA | 0.3984
GATA3 | -0.2833
GBX1 | 1.521
GFI1 | -0.2635
GFI1B | -0.772
GLI2 | -0.605
GSC2 | -0.9708
HDGF | 2.149
HIVEP2 | -0.8032
HMGN3 | 1.967
HOX11L2/RNX | 0.134
HOXA1 | -0.1685
HOXA3 | -0.6169
HOXA5 | -1.091
HOXA6 | 1.681
HOXA9 | -1.01
HOXA10 | -0.1146

Substance | Z score of condensed fraction
HOXA11 | -0.6499
HOXB4 | -1.061
HOXB5 | -0.4916
HOXB7 | 0.6165
HOXB8 | -0.6846
HOXB13 | -0.5432
HOXC4 | 0.8193
HOXC5 | -0.4333
HOXC9 | -0.7207
HOXC10 | -0.2628
HOXC11 | -0.01391
HOXD1 | -0.8333
HOXD4 | -0.2008
HOXD10 | -0.4162
HOXD11 | -0.6245
HOXD12 | 0.1237
KDM5C | 0.549
KDM5D | 0.3583
KLF7 | 1.062
KLF9 | -0.8423
KLF13 | -0.9454
KLF15 | 0.8588
KLF16 | -0.8935
LHX6 | -0.2026
LHX8 | -0.6943
LYL1 | -0.8803

Substance | Z score of condensed fraction
MAD2 | -0.8457
MAFG | 0.65
MAX | 1.089
MECOM | -0.8438
MEOX1 | -0.5142
MIXL1 | -0.6564
MSX1 | -0.7505
MTF1 | 0.05882
MYT1L | -0.407
NEUROD6 | 1.486
NFIA | 0.5032
NFIB | 0.509
NFIC | -0.8557
NH1H1 | -0.5104
NKX3-1 | -0.7603
NKX3-2 | 1.062
NPM1 | 0.01602
NR2E1/TLX | -0.5566
NR5A1 | -0.8082
NRBF2 | -0.07151
OTX1 | -0.7284
PAX2 | -1.114
PAX6 | -0.2168
PAX9 | -0.6994
PBRM1 | -1.101
PCBD2 | -0.6918

Substance | Z score of condensed fraction
PDX1 | -0.1162
PHF19 | -0.6582
PHOX2A | 0.2668
PHOX2B | -1.179
PITX1 | 0.6327
PITX3 | 1.221
PNRC2 | 0.4868
PRDM1 | -0.6129
PRDM2 | -1.186
PRDM4 | -0.7551
PRDM13 | -0.08172
PRRX1 | -0.08333
PSMC3 | 1.134
RAX2 | 0.03236
RERE | -0.9918
RHOA | 2.893
RREB1 | -1.018
SOX5 | -1.09
SOX11 | 1.034
SOX14 | 0.5877
SOX15 | 0.259
SOX17 | 0.6231
SOX21 | -0.645
SP1 | -0.5886
SP4 | 0.4803
SP7 | -0.6845

Substance | Z score of condensed fraction
SP8 | -1.149
SPIB | -0.6455
SSX1 | 0.2068
ST18 | -0.7086
SUMO1 | -0.2512
SUPT3H | 2.5076
TADA1L | -0.6293
TAF11 | -0.1333
TAL1 | 1.608
TAL2 | 1.36
TFAP2C | 1.42
TFAP2D | -0.6052
TFAP2E | 1.779
TGIF2 | 0.8605
TIGD4 | -0.7471
TLX2 | -0.3265
TULP4 | -0.4703
VSX1 | 0.9653
VSX2 | 2.883
WIZ | -0.9233
XRCC6 | -0.8161
ZBTB8A | 0.3848
ZBTB14 | -0.8092
ZBTB16 | 0.8279
ZDHHC17 | 0.6824
